In article PMC11845477, “Exploring the principles behind antibiotics with limited resistance” (Nature Communications, 2025):

Columns and labels:
[1] = system: E. coli ATCC 25922 (SEN) and E. coli NCTC13846 (MDR); assay: microbe, parasite or virus in culture; format: cell-based, Escherichia coli; conditions: for MIC of ancestor: ancestor strain; for MIC: Escherichia coli, across three biological replicates
Protocol: This study focused on multiple bacterial strains, as follows. For the FoR and ALE experiments, 2 strains per species were chosen: E. coli ATCC 25922, K. pneumoniae ATCC 10031, A. baumannii ATCC 17978, and P. aeruginosa ATCC BAA-3107 as sensitive (SEN) strains, and E. coli NCTC13846, K. pneumoniae ATCC 700603, A. baumannii ATCC BAA-1605 and P. aeruginosa LESB58 as multi-drug resistant (MDR) strains. Functional metagenomic screens were performed with E. coli ATCC 25922 and K. pneumoniae ATCC 10031 strains. To determine the dose-kill properties of the different antibiotics, an E. coli strain (ATCC 25922) expressing a yellow fluorescent protein (pZS2R, YFP, CHL^R) and a red fluorescent protein (pZS2R, mCherry, CHL^R) was used.
Unless otherwise indicated, cation-adjusted Mueller-Hinton Broth 2 (MHB, Millipore) medium was used throughout the study, except for SCH79797 (SCH).
(§1) A robotic liquid handling system was used to automatically prepare a 11 to 16-step serial dilution in 384-well microtiter plates (Greiner). A final concentration of 5 × 10^5 bacterial cells per mL were inoculated into each well containing 60 µL MHB medium. Bacterial cultures were incubated at 37 °C with continuous shaking (Infors shaker, 900 rpm with 3 mm throw) for 18 hours (2 replicates from each). Cell growth was monitored by measuring the optical density (OD600 values, using Biotek Synergy microplate reader). MIC was defined as the antibiotic concentration of complete growth inhibition (i.e., OD600 < 0.05). Relative MIC was calculated as follows:1 relativeMIC=MICevolved/MICancestor

[2] = system: P. aeruginosa ATCC BAA-3107 (SEN) and P. aeruginosa LESB58 (MDR); assay: Adaptive laboratory evolution (ALE), relative MIC of evolved lines; format: cell-based, Pseudomonas aeruginosa
From the text: Using the same set of bacterial strains, we initiated adaptive laboratory evolution with the aim to maximize the level of antibiotic resistance in the populations achieved during a longer, but fixed time period.
An established protocol for adaptive laboratory evolution[46],[73] was followed to propagate populations with the highest resistance levels. Starting with an antibiotic concentration that caused approximately 50% growth inhibition, ten parallel populations for each antibiotic-ancestor strain combination were grown for 72 hours at 37 °C with continuous shaking (300 RPM). MHB broth medium was used unless stated otherwise. After each incubation, 20 µl of each culture was transferred to four new wells containing fresh medium with increasing antibiotic concentrations (0.5×, 1×, 1.5×, and 2.5× the previous concentration) in a chessboard layout to monitor potential cross-contamination. Growth was monitored by measuring OD600 using a Biotek Synergy 2 microplate reader, and only populations grown in the highest drug concentration with an OD600 > 0.2 were transferred further.
as §1, with “relativeMIC=MICevolved/MICancestor […]” for “relativeMIC=MICevolved/MICancestor”
Supplementary Figure 4. Resistance levels following adaptive laboratory evolution across bacterial strains. The level of resistance was measured as the fold change in relative MIC between evolved and ancestral strains after ~60 days of adaptive laboratory evolution. Data are grouped by bacterial strain (A. baumannii (AB), E. coli (EC), K. pneumoniae (KP), and P. aeruginosa (PA)) and categorized as either multidrug-resistant (MDR) or sensitive (SEN). Each data point represents a laboratory evolved line, and boxplots show the median, first and third quartiles, with whiskers indicating the 5th and 95th percentiles.
Statistical analysis was performed using two-sided Dunn’s post-hoc test with Benjamini-Hochberg correction for multiple comparisons (****/ ***/ **/ * indicates p < 0.0001/ 0.001/ 0.01/ 0.05). For detailed information on antibiotic and bacterial species, see Supplementary Table 1. For mode of action groups, refer to Table 1. Source data are provided as a Source Data file.

[3] = Escherichia coli ATCC 25922 (EC-SEN)

Nc1nc(-n2cc(C(=O)O)c(=O)c3cc(F)c(N4CC(O)C4)c(Cl)c32)c(F)cc1F [Delafloxacin]
MIC of ancestor [1, 3]: 0.0312 µg/mL | MIC of ancestor ([1]; Escherichia coli ATCC 25922 (EC-SEN), sheet fig 2a): 0.0312 µg/mL | MIC [1, 3]: 0.0312 µg/mL | MIC ([1]; Escherichia coli NCTC 13846 (EC-MDR)): 16 µg/mL | Relative MIC ([2]; PA-MDR (LESB 58), evolved line 1, MIC of evolved line / MIC of ancestor): 64 | Relative MIC ([2]; PA-MDR (LESB 58), evolved line 2, MIC of evolved line / MIC of ancestor): 64 | Relative MIC ([2]; PA-MDR (LESB 58), evolved line 3, MIC of evolved line / MIC of ancestor): 64 | MIC of evolved line ([2]; PA-MDR (LESB 58), evolved line 4): 128 µg/mL | Relative MIC ([2]; PA-MDR (LESB 58), evolved line 4, MIC of evolved line / MIC of ancestor): 64 | MIC of evolved line ([2]; PA-MDR (LESB 58), evolved line 5): 128 µg/mL | Relative MIC ([2]; PA-MDR (LESB 58), evolved line 5, MIC of evolved line / MIC of ancestor): 64 | MIC of evolved line ([2]; PA-MDR (LESB 58), evolved line 6): 64 µg/mL | Relative MIC ([2]; PA-MDR (LESB 58), evolved line 6, MIC of evolved line / MIC of ancestor): 32 | MIC of evolved line ([2]; PA-MDR (LESB 58), evolved line 7): 128 µg/mL | Relative MIC ([2]; PA-MDR (LESB 58), evolved line 7, MIC of evolved line / MIC of ancestor): 64 | MIC of evolved line ([2]; PA-MDR (LESB 58), evolved line 8): 128 µg/mL | Relative MIC ([2]; PA-MDR (LESB 58), evolved line 8, MIC of evolved line / MIC of ancestor): 64 | MIC of evolved line ([2]; PA-MDR (LESB 58), evolved line 9): 128 µg/mL | Relative MIC ([2]; PA-MDR (LESB 58), evolved line 9, MIC of evolved line / MIC of ancestor): 64 | MIC of evolved line ([2]; PA-MDR (LESB 58), evolved line 10): 64 µg/mL | Relative MIC ([2]; PA-MDR (LESB 58), evolved line 10, MIC of evolved line / MIC of ancestor): 32 | Relative MIC (log10) ([2]; PA-MDR (Pseudomonas aeruginosa LESB 58), evolved line 2 adapted to the named antibiotic): 1.806 | Relative MIC (log10) ([2]; PA-MDR (Pseudomonas aeruginosa LESB 58), evolved line 4 adapted to the named antibiotic): 1.806 | Relative MIC (log10) ([2]; PA-MDR (Pseudomonas aeruginosa LESB 58), evolved line 6 adapted to the named antibiotic): 1.505 | Relative MIC (log10) ([2]; PA-MDR (Pseudomonas aeruginosa LESB 58), evolved line 7 adapted to the named antibiotic): 1.806 | Relative MIC (log10) ([2]; PA-MDR (Pseudomonas aeruginosa LESB 58), evolved line 9 adapted to the named antibiotic): 1.806 | MIC of evolved line ([2]; PA-MDR LESB 58, evolved line 1): 128 µg/mL | MIC of evolved line ([2]; PA-MDR LESB 58, evolved line 2): 128 µg/mL | MIC of evolved line ([2]; PA-MDR LESB 58, evolved line 3): 128 µg/mL | MIC of evolved line ([2]; PA-SEN (ATCC BAA 3107), evolved line 2): 32 µg/mL | Relative MIC ([2]; PA-SEN (ATCC BAA 3107), evolved line 2, MIC of evolved line / MIC of ancestor): 2048 | MIC of evolved line ([2]; PA-SEN (ATCC BAA 3107), evolved line 3): 64 µg/mL | Relative MIC ([2]; PA-SEN (ATCC BAA 3107), evolved line 3, MIC of evolved line / MIC of ancestor): 4096 | MIC of evolved line ([2]; PA-SEN (ATCC BAA 3107), evolved line 4): 32 µg/mL | Relative MIC ([2]; PA-SEN (ATCC BAA 3107), evolved line 4, MIC of evolved line / MIC of ancestor): 2048 | MIC of evolved line ([2]; PA-SEN (ATCC BAA 3107), evolved line 5): 32 µg/mL | Relative MIC ([2]; PA-SEN (ATCC BAA 3107), evolved line 5, MIC of evolved line / MIC of ancestor): 2048 | MIC of evolved line ([2]; PA-SEN (ATCC BAA 3107), evolved line 6): 64 µg/mL | Relative MIC ([2]; PA-SEN (ATCC BAA 3107), evolved line 6, MIC of evolved line / MIC of ancestor): 4096 | MIC of evolved line ([2]; PA-SEN (ATCC BAA 3107), evolved line 7): 32 µg/mL | Relative MIC ([2]; PA-SEN (ATCC BAA 3107), evolved line 7, MIC of evolved line / MIC of ancestor): 2048 | MIC of evolved line ([2]; PA-SEN (ATCC BAA 3107), evolved line 8): 32 µg/mL | Relative MIC ([2]; PA-SEN (ATCC BAA 3107), evolved line 8, MIC of evolved line / MIC of ancestor): 2048 | MIC of evolved line ([2]; PA-SEN (ATCC BAA 3107), evolved line 9): 32 µg/mL | Relative MIC ([2]; PA-SEN (ATCC BAA 3107), evolved line 9, MIC of evolved line / MIC of ancestor): 2048 | MIC of evolved line ([2]; PA-SEN (ATCC BAA 3107), evolved line 10): 32 µg/mL | Relative MIC ([2]; PA-SEN (ATCC BAA 3107), evolved line 10, MIC of evolved line / MIC of ancestor): 2048 | Relative MIC (log10) ([2]; PA-SEN (Pseudomonas aeruginosa ATCC BAA 3107), evolved line 2 adapted to the named antibiotic): 3.311 | Relative MIC (log10) ([2]; PA-SEN (Pseudomonas aeruginosa ATCC BAA 3107), evolved line 7 adapted to the named antibiotic): 3.311 | Relative MIC (log10) ([2]; PA-SEN (Pseudomonas aeruginosa ATCC BAA 3107), evolved line 8 adapted to the named antibiotic): 3.311 | Relative MIC (log10) ([2]; PA-SEN (Pseudomonas aeruginosa ATCC BAA 3107), evolved line 10 adapted to the named antibiotic): 3.311 | Relative MIC ([2]; Pseudomonas aeruginosa ATCC BAA 3107 (PA-SEN), evolved line 2): 2048 | Relative MIC ([2]; Pseudomonas aeruginosa ATCC BAA 3107 (PA-SEN), evolved line 3): 4096 | Relative MIC ([2]; Pseudomonas aeruginosa ATCC BAA 3107 (PA-SEN), evolved line 4): 2048 | Relative MIC ([2]; Pseudomonas aeruginosa ATCC BAA 3107 (PA-SEN), evolved line 5): 2048 | Relative MIC ([2]; Pseudomonas aeruginosa ATCC BAA 3107 (PA-SEN), evolved line 6): 4096 | Relative MIC ([2]; Pseudomonas aeruginosa ATCC BAA 3107 (PA-SEN), evolved line 7): 2048 | Relative MIC ([2]; Pseudomonas aeruginosa ATCC BAA 3107 (PA-SEN), evolved line 8): 2048 | Relative MIC ([2]; Pseudomonas aeruginosa ATCC BAA 3107 (PA-SEN), evolved line 9): 2048 | Relative MIC ([2]; Pseudomonas aeruginosa ATCC BAA 3107 (PA-SEN), evolved line 10): 2048 | Relative MIC ([2]; Pseudomonas aeruginosa LESB 58 (PA-MDR), evolved line 1): 64 | Relative MIC ([2]; Pseudomonas aeruginosa LESB 58 (PA-MDR), evolved line 2): 64 | Relative MIC ([2]; Pseudomonas aeruginosa LESB 58 (PA-MDR), evolved line 3): 64 | Relative MIC ([2]; Pseudomonas aeruginosa LESB 58 (PA-MDR), evolved line 4): 64 | Relative MIC ([2]; Pseudomonas aeruginosa LESB 58 (PA-MDR), evolved line 5): 64 | Relative MIC ([2]; Pseudomonas aeruginosa LESB 58 (PA-MDR), evolved line 6): 32 | Relative MIC ([2]; Pseudomonas aeruginosa LESB 58 (PA-MDR), evolved line 7): 64 | Relative MIC ([2]; Pseudomonas aeruginosa LESB 58 (PA-MDR), evolved line 8): 64 | Relative MIC ([2]; Pseudomonas aeruginosa LESB 58 (PA-MDR), evolved line 9): 64 | Relative MIC ([2]; Pseudomonas aeruginosa LESB 58 (PA-MDR), evolved line 10): 32
